Columns and labels:
soybean = assay: Test Example 5, spraying over the top, phytotoxicity to soybean; assay type: in vivo; conditions: sprayed over the top, 20 days
Method: (§1) The application of the tetrahydrophthalimides (I) as herbicides will be illustratively shown in the following Examples wherein the phytotoxicity to cultivated plants and the herbicidal activity on weeds were evaluated as follows: the aerial parts of the test plants were cut off and weighed (fresh weight); the percentage of the fresh weight of the treated plant to that of the untreated plant was calculated with the latter fresh weight taken as 100; and the crop damage and the herbicidal activity were evaluated by the standard given in the table below. The rating values of phytotoxicity, 0 and 1, and those of herbicidal effect, 5 and 4, are generally regarded as satisfactory to protect cultivated plants and control weeds, respectively. The rating values in the paddy field test alone were calculated from the dry weight of the test plants.
(§2) Plastic trays (35 cm×25 cm×15 cm) were filled with upland field soil, and the seeds of tall morningglory, velvetleaf, jimsonweed, sicklepod, hemp sesbania, prickly side, Johnsongrass, green foxtail and large crabgrass and the seeds of soybean were sown therein. A designed amount of the test compound formulated into a wettable powder according to Preparation Example 1 and dispersed in water was sprayed over the top by means of a small hand sprayer at a spray volume of 5 liters per are. After the spraying, the test plants were grown in greenhouse for 20 days, and phytotoxicity and herbicidal activity were examined.

tall morningglory = assay: Test Example 5, spraying over the top, herbicidal activity; assay type: in vivo, Ipomoea purpurea; conditions: sprayed over the top, 20 days
Method: as §1, §2

slender spikerush = assay: Test Example 7, flooded paddy pot dripping, herbicidal activity; assay type: in vivo, Eleocharis acicularis; conditions: 3 weeks
Method: as §1
(§3) Wagner's pots (1/5000 are) were filled with paddy field soil and water was poured therein to make a flooded condition. Rice seedlings of the 3-leaf stage were transplanted and tubers of slender spikerush and arrowhead and the seeds of barnyardgrass, monochoria and broad-leaved weed were sowed therein and grown for 5 days. When germination occurs, a designed amount of the test compound formulated into an emulsifiable concentrate according to Preparation Example 2 was applied to the pots by dripping. The test plants were grown for a further 3 weeks, and herbicidal activity and phytotoxicity were examined. The herbicidal activity was evaluated in figures ranging from 0 to 5. The phytotoxicity to the crop plants was also indicated on the same standard as that of the herbicidal activity.

arrowhead = assay: Test Example 6, paddy pot perfusion, herbicidal activity; assay type: in vivo, Sagittaria pygmaea; conditions: 3 weeks, dry weight
Method: as §1
(§4) Wagner's pots (1/5000 are) were filled with paddy field soil containing the seeds of broad-leaved weeds (e.g. monochoria, false pimpernel, toothcup) and the seeds of barnyardgrass and hardstem bulrush, and water was poured therein until the depth of water became 4 cm. Rice seedlings of the 3.5-leaf stage and the tubers of arrowhead were transplanted therein and grown for 2 days in a greenhouse. A designed amount of the test compound formulated in an emulsifiable concentrate according to Preparation Example 2 was applied to the pots by perfusion. Thereafter, the test plants were grown for an additional 3 weeks in the greenhouse, and herbicidal activity and phytotoxicity were examined. In this treatment, the emulsifiable concentrate was dispersed in water for application at a perfusion volume of 10 liters per are.

broad-leaved weed = assay: Test Example 7, flooded paddy pot dripping, herbicidal activity; assay type: in vivo; conditions: 3 weeks
Method: as §1, §3

hemp sesbania = assay: Test Example 5, spraying over the top, herbicidal activity; assay type: in vivo, Sesbania exaltator; conditions: sprayed over the top, 20 days
Method: as §1, §2

morningglory = assay: Test Example 4, pre-emergence treatment, herbicidal activity; assay type: in vivo; conditions: 20 days
Method in brief: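 After sowing in upland field soil, the test compound was sprayed over the soil as a water-dispersed emulsifiable concentrate with spreading agent. Plants grew 20 days in the greenhouse before aerial parts were cut and weighed, and ratings were assigned from fresh weight as percent of untreated.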

velvetleaf = assay: Test Example 3, soil surface spraying, herbicidal activity; assay type: in vivo, Abutilon theophrasti; conditions: 20 days
Method: as §1
Plastic trays (35 cm×25 cm×15 cm) were filled with upland field soil, and the seeds of tall morningglory, velvetleaf and sicklepod and the seeds of corn were sown therein. A designed amount of the test compounds formulated into a wettable powder according to Preparation Example 1 was dispersed in water and applied by spraying at a spray volume of 5 liters per are to the whole surface of the soil. After the spraying, the test plants were placed in a greenhouse and grown for 20 days, and herbicidal activity and phytotoxicity were examined.

hardstem bulrush = assay: Test Example 6, paddy pot perfusion, herbicidal activity; assay type: in vivo, Scirpus juncoides; conditions: 3 weeks, dry weight
Method: as §1, §4

cocklebur = assay: Test Example 2, field foliar treatment, herbicidal activity; assay type: in vivo, Xanthium pennsylvanicum; conditions: 3 weeks
Method: as §1
(§5) Seeds of corn and broad-leaved weeds such as cocklebur, common purslane and tall morningglory were sown in the field as previously laid up in ridges, each ridge having an upper width of 1 m. At the time when the corn grew up to the 6-leaf stage and the broad-leaved weeds up to 2 to 5-leaf stages, a designed amount of the test compound formulated into an emulsifiable concentrate according to Preparation Example 2 and dispersed in water was sprayed to the foliage of the test plants with three replications over the top by means of a small hand sprayer at a spray volume of 5 liters per are. After cultivation for 3 weeks, herbicidal activity and phytotoxicity were examined.

corn [1] = assay: Test Example 2, field foliar treatment, phytotoxicity to corn; assay type: in vivo; conditions: 3 weeks
Method: as §1, §5

prickly sida = assay: Test Example 5, spraying over the top, herbicidal activity; assay type: in vivo, Sida spinosa; conditions: sprayed over the top, 20 days
Method: as §1, §2

common purslane = assay: Test Example 2, field foliar treatment, herbicidal activity; assay type: in vivo, Portulaca oleracea; conditions: 3 weeks
Method: as §1, §5

sicklepod = assay: Test Example 5, spraying over the top, herbicidal activity; assay type: in vivo, Cassia obtusifolia; conditions: sprayed over the top, 20 days
Method: as §1, §2

corn [2] = assay: Test Example 1, foliar treatment, phytotoxicity to corn; assay type: in vivo; conditions: 3 weeks
Method in brief: (§6)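 Plants were sown in upland soil and grown 2 weeks in a greenhouse, then sprayed on the foliage with the compound as an emulsifiable concentrate dispersed in water with a spreading agent (5 liters per are). After 3 further weeks, aerial fresh weight relative to untreated (taken as 100) was converted to a rating.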

wild oat = assay: Test Example 1, foliar treatment, herbicidal activity; assay type: in vivo, Avena fatua; conditions: 3 weeks
Method in brief: as §6
Also: ranges in brackets are in %.

Row | Compound | Phytotoxicity, Soybean (soybean; 10 g/are) | Phytotoxicity, Soybean (soybean; 20 g/are) | Herbicidal activity, Tall morningglory (tall morningglory; 10 g/are) | Herbicidal activity, Tall morningglory (tall morningglory; 20 g/are) | Herbicidal activity, Arrowhead (arrowhead; 1.25 g/are) | Herbicidal activity, Arrowhead (arrowhead; 2.5 g/are) | Herbicidal activity, Hemp sesbania (hemp sesbania; 10 g/are) | Herbicidal activity, Hemp sesbania (hemp sesbania; 20 g/are) | Herbicidal activity, Velvetleaf (velvetleaf; 5 g/are) | Herbicidal activity, Velvetleaf (velvetleaf; 10 g/are) | Herbicidal activity, Hardstem bulrush (hardstem bulrush; 1.25 g/are) | Herbicidal activity, Hardstem bulrush (hardstem bulrush; 2.5 g/are) | Herbicidal activity, Cocklebur (cocklebur; 0.63 g/are) | Herbicidal activity, Cocklebur (cocklebur; 1.25 g/are) | Phytotoxicity, Corn (corn [1]; 0.63 g/are) | Phytotoxicity, Corn (corn [1]; 1.25 g/are) | Herbicidal activity, Prickly sida (prickly sida; 10 g/are) | Herbicidal activity, Prickly sida (prickly sida; 20 g/are) | Herbicidal activity, Common purslane (common purslane; 0.63 g/are) | Herbicidal activity, Common purslane (common purslane; 1.25 g/are) | other results
1 | O=C1C2=C(CCCC2)C(=O)N1c1ccc(Cl)cc1F [A, 2-fluoro-4-chlorophenyltetrahydrophthalimide, reference compound] | 1 (90-99) | 2 (80-89) | 0 (61-100) | 1 (41-60) | 0 (61-100) | 0 (61-100) | 3 (11-20) | 5 (0) | 3 (11-20) | 4 (1-10) | 2 (21-40) | 3 (11-20) | 1 (41-60) | 4 (1-10) | 0 (100) | 1 (90-99) | 5 (0) | 5 (0) | 2 (21-40) | 3 (11-20) | Herbicidal activity, Slender spikerush (slender spikerush; 2.5 g/are): 2 (30-49); Herbicidal activity, Slender spikerush (slender spikerush; 5 g/are): 3 (50-69); Herbicidal activity, Slender spikerush (slender spikerush; 10 g/are): 4 (70-89); Herbicidal activity, Broad-leaved weed (broad-leaved weed; 2.5 g/are): 4 (70-89); Herbicidal activity, Broad-leaved weed (broad-leaved weed; 5 g/are): 5 (90-100); Herbicidal activity, Broad-leaved weed (broad-leaved weed; 10 g/are): 5 (90-100); Herbicidal activity, Morningglory (morningglory; 2.5 g/are): 1 (41-60); Herbicidal activity, Morningglory (morningglory; 10 g/are): 2 (21-40); Herbicidal activity, Sicklepod (sicklepod; 10 g/are): 1 (41-60); Herbicidal activity, Sicklepod (sicklepod; 20 g/are): 2 (21-40); Phytotoxicity, Corn (corn [2]; 1.25 g/are): 1 (90-99); Phytotoxicity, Corn (corn [2]; 5 g/are): 2 (80-89); Herbicidal activity, Wild cat (wild oat; 1.25 g/are): 0 (61-100); Herbicidal activity, Wild cat (wild oat; 5 g/are): 1 (41-60)
2 | CC(C)Oc1cc(N2C(=O)C3=C(CCCC3)C2=O)c(Cl)cc1Cl [B, 2,4-dichloro-5-isopropoxyphenyltetrahydrophthalimide, reference compound] | 0 (100) | 0 (100) | 0 (61-100) | 0 (61-100) | 0 (61-100) | 0 (61-100) | 1 (41-60) | 2 (21-40) | 1 (41-60) | 3 (11-20) | 1 (41-60) | 2 (21-40) | 2 (21-40) | 4 (1-10) | 1 (90-99) | 1 (90-99) | 3 (11-20) | 4 (1-10) | 3 (11-20) | 4 (1-10) | Herbicidal activity, Morningglory (morningglory; 5 g/are): 0 (61-100); Herbicidal activity, Morningglory (morningglory; 20 g/are): 1 (41-60); Herbicidal activity, Sicklepod (sicklepod; 10 g/are): 0 (61-100); Herbicidal activity, Sicklepod (sicklepod; 20 g/are): 2 (21-40); Phytotoxicity, Corn (corn [2]; 1.25 g/are): 0 (100); Phytotoxicity, Corn (corn [2]; 5 g/are): 1 (90-99); Herbicidal activity, Wild cat (wild oat; 1.25 g/are): 0 (61-100); Herbicidal activity, Wild cat (wild oat; 5 g/are): 1 (41-60)

Source: patent US5030760A, “Tetrahydrophthalimides, and their production and use” (Sumitomo Chemical Company, Ltd., priority 1981, dated 1991)
